Where two headings read alike, the source gives them in different places.
How the values were obtained:
[1] = system: erythrocyte membrane ghost; assay: Antioxidative activity: erythrocyte membrane ghost oxidation (TBA reaction); type: biochemical, rabbit
Experimental: The antioxidative activity of sphingomyelin was measured according to the method of Osawa et al. (J. Agric. Food Chem., vol. 35, pp. 809-812, 1987). Specifically, preserved rabbit blood was mixed with an equal amount of an isotonic solution (10 mM phosphate buffer/152 mM sodium chloride, pH 7.4), followed by centrifugation at 1,500×g (3,500 rpm) at 4° C. for 20 minutes. Blood corpuscles washed by repeating this procedure three times were mixed with an equal amount of a hypotonic solution (10 mM phosphate buffer, pH 7.4), followed by centrifugation at 20,000×g (11,000 rpm) at 4° C. for 40 minutes. Then, loose pellets (erythrocyte membrane ghost) obtained by repeating this procedure four times were used to examine antioxidative activity. […] An oxidation reaction was performed by the addition of an oxidizing agent. Subsequently, a TBA reaction was performed. Then, absorbance at 532 nm was measured to quantify an oxidation product.

cholera toxin = conditions: in vivo
[2] = system: phototoxic pigmentation caused by treatment with 8MOP; type: in vivo, female ICR mice; conditions: for depigmentation / pigmentation grade (Table 12: +3 whitened to −3 evidently blackened): 5% sample, 50 μl once daily
Description: An anti-pigmentation effect and the degree of pigmentation (shown in Table 12) produced as a side effect were rated by four-grade evaluation (+: depigmentation effect, −: side effect). […] Moreover, no agent was applied to a control group. […] [table]

Substance: sphingomyelin
- absorbance at 532 nm (oxidation product) with respect to absence of added sphingomyelin defined as 100% ([1]; sample concentration 0.01 mM, lower = higher antioxidative activity): 98%
- absorbance at 532 nm (oxidation product) with respect to absence of added sphingomyelin defined as 100% ([1]; sample concentration 0.1 mM): 95%
- absorbance at 532 nm (oxidation product) with respect to absence of added sphingomyelin defined as 100% ([1]; sample concentration 1 mM): 80%
- absorbance at 532 nm (oxidation product) with respect to absence of added sphingomyelin defined as 100% ([1]; sample concentration 10 mM): 61%
- Inhibition rate (cholera toxin): 38.9 ± 3.8%
- depigmentation / pigmentation grade (Table 12: +3 whitened to −3 evidently blackened) ([2]; application period 1 week): 0.4
- depigmentation / pigmentation grade (Table 12: +3 whitened to −3 evidently blackened) ([2]; application period 2 weeks): 0.8
- depigmentation / pigmentation grade (Table 12: +3 whitened to −3 evidently blackened) ([2]; application period 3 weeks): 1.2
- depigmentation / pigmentation grade (Table 12: +3 whitened to −3 evidently blackened) ([2]; application period 4 weeks): 1.1
- depigmentation / pigmentation grade (Table 12: +3 whitened to −3 evidently blackened) ([2]; application period 5 weeks): 0.9
- depigmentation / pigmentation grade (Table 12: +3 whitened to −3 evidently blackened) ([2]; application period 6 weeks): 0.3
- depigmentation / pigmentation grade (Table 12: +3 whitened to −3 evidently blackened) ([2]; application period 7 weeks): 0
- depigmentation / pigmentation grade (Table 12: +3 whitened to −3 evidently blackened) ([2]; application period 8 weeks): 0
- side effect (pigmentation) on application ([2]; mouse, in vivo): no side effect

From patent US8486916B2, “Medicine, food and drink or feed containing sphingomyelin” (Megmilk Snow Brand Co., Ltd., priority 2005, dated 2013)
